From EP0647618A1, “NEW NON IONIC IODINE-CONTAINING DIMERS USEFUL AS X-RAY CONTRAST AGENTS, METHOD FOR THE PREPARATION THEREOF, AND GALENICAL COMPOSITIONS CONTAINING THEM” (CENTRO INVESTIGACION JUSTESA IMAGEN S.A., priority 1993, dated 1994)

How the values were obtained:
Type in all cases: physicochemical
[1] = Osmolality of aqueous solution at 300 mg I/ml; conditions: 300 mg I/ml (Table II)
[2] = Viscosity of aqueous solution at 300 mg I/ml; conditions: 300 mg I/ml (Table II)
[3] = physchem; conditions: water, 20°C (Table II); read-out: SOLUBILITY IN WATER at 20°
Method: On the other hand, radiologists need compounds with a wide range of uses: for example, angiography, urography, myelography, cisternography, lymphography, cardiography and gastrography. The products according to this invention fulfil the requirements for the above uses, as they have high water solubility, normally higher than 60% (w/v), which, in some cases, is as high as 100% at 20°C, without showing any tendency to crystallize. They also have a very low general toxicity, stated as the average lethal dose for the rat, DL₅₀.

| Structure (SMILES) | OSMOLALITY mOsm/kg at 300 mg I/ml [1] [mOsm/kg] | VISCOSITY mPas (37°C) at 300 mg I/ml [2] [mPas] | solubility [3] [mg/mL] |
| --- | --- | --- | --- |
| O=C(CN(CC(=O)Nc1c(I)c(C(=O)NCC(O)CO)c(I)c(C(=O)NCC(O)CO)c1I)CC(O)CO)Nc1c(I)c(C(=O)NCC(O)CO)c(I)c(C(=O)NCC(O)CO)c1I (stereo not shown) [ICJ-1092, N,N'-Bis-{3,5-bis-[N-(2,3-dihydroxypropyl)carbamoyl]-2,4,6-triiodophenyl}-3-(2,3-dihydroxypropyl)-3-azapentanediamide] | 193 | 10.3 | > 600 |
| O=C(CN(CCO)CC(=O)Nc1c(I)c(C(=O)NCC(O)CO)c(I)c(C(=O)NCC(O)CO)c1I)Nc1c(I)c(C(=O)NCCO)c(I)c(C(=O)NCCO)c1I (stereo not shown) [ICJ-1292, N-{3,5-Bis-[N-(2,3-dihydroxypropyl)carbamoyl]-2,4,6-triiodophenyl}-N'-{3,5-bis-[N-(2-hydroxyethyl)carbamoyl]-2,4,6-triiodophenyl}-3-(2-hydroxyethyl)-3-azapentanediamide] | – | – | < 600 |
| O=C(CN(CCO)CC(=O)Nc1c(I)c(C(=O)NCCO)c(I)c(C(=O)NCCO)c1I)Nc1c(I)c(C(=O)NCCO)c(I)c(C(=O)NCCO)c1I [ICJ-1392, N,N'-Bis-{3,5-bis-[N-(2-hydroxyethyl)carbamoyl]-2,4,6-triiodophenyl}-3-(2-hydroxyethyl)-3-azapentanedimide] | – | – | < 600 |
| O=C(CN(CC(=O)Nc1c(I)c(C(=O)NCC(O)CO)c(I)c(C(=O)NCC(O)CO)c1I)CC(O)CO)Nc1c(I)c(C(=O)NCCO)c(I)c(C(=O)NCCO)c1I (stereo not shown) [ICJ-1492, N-{3,5-bis-[N-(2,3-dihydroxypropyl)carbamoyl]-2,4,6-triiodophenyl}-N'-{3,5-bis-[N-(2-hydroxyethyl)carbamoyl]-2,4,6-triiodophenyl)-3-(2,3-dihydroxypropyl)-3-azapentanediamide] | 137 | 9.5 | < 600 |
| CN(C(=O)CN(CCO)CC(=O)Nc1c(I)c(C(=O)NCC(O)CO)c(I)c(C(=O)NCC(O)CO)c1I)c1c(I)c(C(=O)NCC(O)CO)c(I)c(C(=O)NCC(O)CO)c1I (stereo not shown) [ICJ-1792, N,N'-Bis-{3,5-bis-[N-(2,3-dihydroxypropyl)carbamoyl]-2,4,6-triiodophenyl}-N-methyl-3-(2-hydroxyethyl)-3-azapentanediamide] | 157 | 10.6 | > 600 |
| CN(C(=O)CN(CCO)CC(=O)Nc1c(I)c(C(=O)NCCO)c(I)c(C(=O)NCCO)c1I)c1c(I)c(C(=O)NC(CO)C(O)CO)c(I)c(C(=O)NC(CO)C(O)CO)c1I (stereo not shown) [ICJ-1892, N{3,5-Bis-[N-(1-hydroxymethyl-2,3-dihydroxypropyl)carbamoyl]-2,4,6-triiodophenyl}-N-methyl-N'-{3,5-bis-[N-(2-hydroxyethyl)carbamoyl]-2,4,6-triiodophenyl}-3-(2-hydroxyethyl)-3-azapentanediamide] | 133 | 9.7 | > 600 |
| CN(C(=O)CN(CCO)CC(=O)Nc1c(I)c(C(=O)NC(CO)C(O)CO)c(I)c(C(=O)NC(CO)C(O)CO)c1I)c1c(I)c(C(=O)NCCO)c(I)c(C(=O)NCCO)c1I (stereo not shown) [ICJ-1992, N-{3,5-Bis-[N-(1-hydroxymethyl-2,3-dihydroxypropyl)carbamoyl]-2,4,6-triiodophenyl}-N'-methyl-N'-{3,5-bis-[N-(2-hydroxyethyl)carbamoyl]-2,4,6-triiodophenyl}-3-(2-hydroxyethyl)-3-azapentanediamide] | 164 | 9.1 | > 600 |
| CN(C(=O)CN(CCO)CC(=O)N(C)c1c(I)c(C(=O)NC(CO)C(O)CO)c(I)c(C(=O)NC(CO)C(O)CO)c1I)c1c(I)c(C(=O)NCCO)c(I)c(C(=O)NCCO)c1I (stereo not shown) [ICJ-2092, N-{3,5-Bis-[N-(1-hydroxymethyl-2,3-dihydroxypropyl)carbamoyl]-2,4,6-triiodophenyl}-N'-{3,5-bis-[N-(2-hydroxyethyl)carbamoyl]-2,4,6-triiodophenyl}-N,N'-dimethyl-3-(2-hydroxyethyl)-3-azapentanediamide] | 188 | 9.5 | > 600 |
| CN(C(=O)CN(CCO)CC(=O)Nc1c(I)c(C(=O)NCC(O)CO)c(I)c(C(=O)NCC(O)CO)c1I)c1c(I)c(C(=O)NCCO)c(I)c(C(=O)NCCO)c1I (stereo not shown) [ICJ-2192, N-{3,5-Bis-[N-(2,3-dihydroxpropyl)carbamoyl]-2,4,6-triiodophenyl}-N'-methyl-N'-{3,5-bis-[N-(2-hydroxyethyl)carbamoyl]-2,4,6-triiodophenyl}-3-(2-hydroxyethyl)-3-azapentanediamide] | – | – | < 600 |
| CN(C(=O)CN(CCO)CC(=O)N(C)c1c(I)c(C(=O)NCC(O)CO)c(I)c(C(=O)NCC(O)CO)c1I)c1c(I)c(C(=O)NCCO)c(I)c(C(=O)NCCO)c1I (stereo not shown) [ICJ-2292, N-{3,5-Bis-[N-(2,3-dihydroxypropyl)carbamoyl]-2,4,6-triiodophenyl}-N'-{3,5-bis-[N-(2-hydroxyethyl)carbamoyl]-2,4,6-triiodophenyl}-N,N'-dimethyl-3-(2-hydroxyethyl)-3-azapentanediamide] | 162 | 11.0 | > 600 |
| CN(C(=O)CN(CCO)CC(=O)N(C)c1c(I)c(C(=O)NCCO)c(I)c(C(=O)NCCO)c1I)c1c(I)c(C(=O)NCCO)c(I)c(C(=O)NCCO)c1I [ICJ-2392, N,N'-Bis-{3,5-bis-[N-(2-hydroxethyl)carbamoyl]-2,4,6-triiodophenyl}-N,N'-dimethyl-3-(2-hydroxyethyl)-3-azapentanedimide] | – | – | < 600 |
| CN(C(=O)CN(CCO)CC(=O)Nc1c(I)c(C(=O)NCCO)c(I)c(C(=O)NCCO)c1I)c1c(I)c(C(=O)NCC(O)CO)c(I)c(C(=O)NCC(O)CO)c1I (stereo not shown) [ICJ-2492, N-{3,5-Bis-[N-(2,3-dihydroxpropyl)carbamoyl]-2,4,6-triiodophenyl}-N-methyl-N'-{3,5-bis-[N-(2-hydroxyethyl)carbamoyl]-2,4,6-triiodophenyl}-3-(2-hydroxyethyl)-3-azapentanediamide] | – | – | < 600 |
| O=C(CN(CC(=O)Nc1c(I)c(C(=O)NCCO)c(I)c(C(=O)NCCO)c1I)C(CO)C(O)CO)Nc1c(I)c(C(=O)NCCO)c(I)c(C(=O)NCCO)c1I (stereo not shown) [ICJ-2592, N,N'-Bis-{3,5-bis-[N-(2-hydroxyethyl)carbamoyl]-2,4,6-triiodophenyl}-3-(1-hydroxymethyl-2,3-dihydroxypropyl)-3-azapentanediamide] | 180 | 9.1 | > 600 |
| CN(CC(=O)Nc1c(I)c(C(=O)NCC(O)CO)c(I)c(C(=O)NCC(O)CO)c1I)CC(=O)Nc1c(I)c(C(=O)NCC(O)CO)c(I)c(C(=O)NCC(O)CO)c1I (stereo not shown) [ICJ-2792, N,N'-Bis-{3,5-bis-[N-(2,3-dihydroxypropyl)carbamoyl]-2,4,6-triiodophenyl}-3-methyl-3-azapentanediamide] | – | – | < 600 |
| CN(CC(=O)N(C)c1c(I)c(C(=O)NCC(O)CO)c(I)c(C(=O)NCC(O)CO)c1I)CC(=O)N(C)c1c(I)c(C(=O)NCC(O)CO)c(I)c(C(=O)NCC(O)CO)c1I (stereo not shown) [ICJ-2992, N,N'-Bis-{3,5-bis-[N-(2,3-dihydroxypropyl)carbamoyl]-2,4,6-triiodophenyl}-N,N'-dimethyl-3-methyl-3-azapentanediamide] | – | – | > 600 |
